Like-named read-outs stand apart in the source and are kept apart here. Blank lines part the entries; values can stand above or below the compound they belong to.
Experiments:
[1] = axitinib, DMSO (NMR), cited from earlier work
[2] = target: T1, VEGFR-2 (purified kinase domain, KDR active) (Homo sapiens, UniProt P35968); details: cited from earlier work
[3] = thermal back isomerization (half-life of the metastable form) by UV/VIS spectroscopy; assay type: physicochemical; details: 37 °C, DMSO (UV/VIS)
Description: For the meta-linked derivative 3 (Figure 6a), a maximum shift of the PSS toward the Z-isomer can be achieved by irradiation at 365 nm. By NMR spectroscopy, a Z-isomer content of 83% was determined in the PSS. […] Back switching to the E-isomers E-3 and E-4 is possible by irradiation at 435 nm (3) or 470 nm (4), respectively. Furthermore, half-lives of the azobenzene derivatives were determined by UV/VIS spectroscopy at 37 °C in DMSO.
(§1) UV/VIS spectra were measured using a Varian Cary® 50 Scan UV/VIS photometer from Agilent (Waldbronn, Germany) equipped with a Varian Cary PCB 150 thermostat either at 25 °C or 37 °C. […] The fitting of thermal relaxations was done with GraphPad Prism® (v.7.03, GraphPad Software, San Diego, CA, USA).

[4] = isomer ratio of the photostationary state by NMR spectroscopy; assay type: physicochemical
Source text: (§2) In order to determine the isomer ratios of the PSS as well as to identify the optimal excitation wavelengths for the E/Z isomerizations, compounds 3–7 were characterized by UV/VIS and NMR spectroscopy. Due to their poor water solubility along with the low molar absorption coefficients of diazocines, all compounds were initially analyzed in DMSO.

[5] = photoswitching followed by UV/VIS spectroscopy; assay type: physicochemical; details: for photoconversion on back switching to the E-isomer: DMSO
Source text: as §2
By irradiation at 530 nm, the diazocine-based compounds 5–7 can be switched back quantitatively to the Z-isomer. Since the associated spectra completely overlap with the spectra of the pure Z-isomers, they are not shown for reasons of clarity. To check the reversibility of the photoswitching, long-term stability measurements with 20 switching cycles were performed. For this purpose, the compounds were irradiated alternately for 20 s at 405 nm and 530 nm, respectively. After each irradiation, an UV/VIS spectrum was recorded.
as §1

[6] = target: T1, VEGFR-2 (purified kinase domain, KDR active); assay: luminescence-based ADP-Glo kinase assay under controlled light conditions; assay type: biochemical; parameters: VEGFR-2 (purified kinase domain, KDR active, Promega); purchased Promega
[7] = system: lysates of human umbilical vein endothelial cells (HUVECs); assay: kinome activity profiling (PamGene) of treated cell lysate; assay type: biochemical; details: 20 µM, irradiated at 405 nm, HUVEC lysate, 10% DMSO
[8] = DMSO, NMR, irradiation at 365 nm
[9] = E-isomer, in the dark (unirradiated), 1% DMSO
[10] = both irradiated and unirradiated compounds
[11] = DMSO (NMR), irradiation at 405 nm
[12] = PSS after irradiation at 405 nm, 10% DMSO
[13] = Z-isomer, in the dark (unirradiated), 10% DMSO
[14] = after irradiation at 405 nm, 10% DMSO

T1 sequence (P35968 834-1162 limits assumed): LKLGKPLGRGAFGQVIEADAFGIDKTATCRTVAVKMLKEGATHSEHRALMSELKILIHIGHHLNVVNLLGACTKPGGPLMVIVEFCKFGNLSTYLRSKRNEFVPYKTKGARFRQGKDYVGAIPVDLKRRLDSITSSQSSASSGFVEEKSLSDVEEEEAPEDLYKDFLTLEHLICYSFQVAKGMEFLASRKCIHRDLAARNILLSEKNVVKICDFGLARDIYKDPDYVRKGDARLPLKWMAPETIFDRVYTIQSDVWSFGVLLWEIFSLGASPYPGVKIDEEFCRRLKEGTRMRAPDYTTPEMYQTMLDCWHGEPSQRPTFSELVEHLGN

Structure (SMILES): CNC(=O)c1ccccc1Sc1ccc2c(/C=C/c3ccccn3)n[nH]c2c1 [Compound 1, Axitinib]
PSS (E/Z%) ([1]; 365 nm (E → Z)): 51/49
PSS (E/Z%) ([1]; 385 nm (Z → E)): 88/12
difference in biological activities of Z-axitinib and E-axitinib [2]: 43 fold

Structure (SMILES): CNC(=O)c1ccccc1Sc1ccc2c(-c3ccc(/N=N/c4ccccc4)cc3)n[nH]c2c1 [Compound 4, (E)‐N‐methyl‐2‐((3‐(4‐(phenyldiazenyl)phenyl)‐1H‐indazol‐6‐yl)thio) benzamide]
k of exponential fit of thermal back isomerization [3]: 0.121
PSS (E/Z%) ([4]; DMSO (NMR), irradiation at 385 nm): 20/80
photoconversion on back switching to the E-isomer ([5]; irradiation at 470 nm): almost quantitative
residual activity (plateau) ([6]; E-isomer in the dark): 43%
IC50 [6, 9]: 1020 nM
IC50 ([6]; PSS after irradiation at 385 nm, 1% DMSO): 1440 nM
residual activity (plateau) ([6]; after irradiation at 385 nm): 13%
IC50 [6, 10]: ~1000 nM

Structure (SMILES): CNC(=O)c1ccccc1Sc1ccc2c(-c3ccc4c(c3)/N=N\c3ccccc3SC4)n[nH]c2c1 [Compound 5, (Z)‐2‐((3‐(12H‐dibenzo[b,f][1,4,5]thiadiazocin‐3‐yl)‐1H‐indazol‐6‐yl)thio)‐N‐methylbenzamide]
k of exponential fit of thermal back isomerization [3]: 0.09514
PSS (E/Z%) [4, 11]: 47/53
kinase activities (phosphorylation degree of substrate peptides) compared to DMSO [7]: moderate decrease of kinase activities
IC50 [6, 12]: 214 nM
IC50 [6, 13]: > 10000 nM
residual activity (plateau) [6, 14]: 6%

Structure (SMILES): CNC(=O)c1ccccc1Sc1ccc2c(-c3ccc4c(c3)/N=N\c3ccccc3CC4)n[nH]c2c1 [Compound 7, (Z)‐2‐((3‐(11,12‐dihydrodibenzo[c,g][1,2]diazocin‐3‐yl)‐1H‐indazol‐6‐yl)thio)‐N‐methylbenzamide]
k of exponential fit of thermal back isomerization [3]: 0.4711
PSS (E/Z%) [4, 11]: 60/40
E-isomer content in the PSS ([4]; DMSO, irradiation at 405 nm): 60%
IC50 [6, 12]: 493 nM
residual activity ([6]; Z-isomer in the dark, 10% DMSO): ≥ 37%

Results, then the compound that gave them:

k of exponential fit of thermal back isomerization [3]: 0.01608
PSS (E/Z%) [4, 8]: 17/83
Z-isomer content in the PSS [4, 8]: 83%
photoconversion on back switching to the E-isomer ([5]; irradiation at 435 nm): almost quantitative
residual activity (plateau) ([6]; E-isomer in the dark): 33%
IC50 [6, 9]: 1080 nM
IC50 ([6]; PSS after irradiation at 365 nm, 1% DMSO): 1290 nM
residual activity (plateau) ([6]; after irradiation at 365 nm): 5%
IC50 [6, 10]: ~1000 nM
Structure (SMILES): CNC(=O)c1ccccc1Sc1ccc2c(-c3cccc(/N=N/c4ccccc4)c3)n[nH]c2c1 [Compound 3, (E)‐N‐methyl‐2‐((3‐(3‐(phenyldiazenyl)phenyl)‐1H‐indazol‐6‐yl)thio) benzamide]

spectral change upon irradiation ([5]; 20 µM in DMSO and water with 10 % DMSO, 365, 385, 405, 420 and 470 nm): No spectral change
IC50 [6, 9]: 415 nM
Structure (SMILES): CNC(=O)c1ccccc1Sc1ccc2c(/N=N/c3ccccn3)n[nH]c2c1 [Compound 2, (E)‐N‐methyl‐2‐((3‐(pyridin‐2‐yldiazenyl)‐1H‐indazol‐6‐yl)thio)benzamide]

k of exponential fit of thermal back isomerization [3]: 0.1853
PSS (E/Z%) [4, 11]: 25/75
E-isomer content in the PSS ([4]; DMSO, irradiation at 405 nm): 25%
IC50 [6, 12]: 251 nM
IC50 [6, 13]: > 10000 nM
residual activity (plateau) [6, 14]: 10%
Structure (SMILES): CNC(=O)c1ccccc1Sc1ccc2c(-c3ccc4c(c3)CSc3ccccc3/N=N\4)n[nH]c2c1 [Compound 6, (Z)‐2‐((3‐(12H‐dibenzo[b,f][1,4,5]thiadiazocin‐2‐yl)‐1H‐indazol‐6‐yl)thio)‐N‐methylbenzamide]

From paper PMC7734574 (International Journal of Molecular Sciences, 2020)
